The source of these data is ChEMBL document CHEMBL1130518, “11,21-Bisphenyl-19-norpregnane derivatives are selective antiglucocorticoids” (Bioorg Med Chem Lett, 1997).

In test [1] the target is T1, Progesterone receptor (Homo sapiens) (UniProt P06401).
T1 sequence (whole entry): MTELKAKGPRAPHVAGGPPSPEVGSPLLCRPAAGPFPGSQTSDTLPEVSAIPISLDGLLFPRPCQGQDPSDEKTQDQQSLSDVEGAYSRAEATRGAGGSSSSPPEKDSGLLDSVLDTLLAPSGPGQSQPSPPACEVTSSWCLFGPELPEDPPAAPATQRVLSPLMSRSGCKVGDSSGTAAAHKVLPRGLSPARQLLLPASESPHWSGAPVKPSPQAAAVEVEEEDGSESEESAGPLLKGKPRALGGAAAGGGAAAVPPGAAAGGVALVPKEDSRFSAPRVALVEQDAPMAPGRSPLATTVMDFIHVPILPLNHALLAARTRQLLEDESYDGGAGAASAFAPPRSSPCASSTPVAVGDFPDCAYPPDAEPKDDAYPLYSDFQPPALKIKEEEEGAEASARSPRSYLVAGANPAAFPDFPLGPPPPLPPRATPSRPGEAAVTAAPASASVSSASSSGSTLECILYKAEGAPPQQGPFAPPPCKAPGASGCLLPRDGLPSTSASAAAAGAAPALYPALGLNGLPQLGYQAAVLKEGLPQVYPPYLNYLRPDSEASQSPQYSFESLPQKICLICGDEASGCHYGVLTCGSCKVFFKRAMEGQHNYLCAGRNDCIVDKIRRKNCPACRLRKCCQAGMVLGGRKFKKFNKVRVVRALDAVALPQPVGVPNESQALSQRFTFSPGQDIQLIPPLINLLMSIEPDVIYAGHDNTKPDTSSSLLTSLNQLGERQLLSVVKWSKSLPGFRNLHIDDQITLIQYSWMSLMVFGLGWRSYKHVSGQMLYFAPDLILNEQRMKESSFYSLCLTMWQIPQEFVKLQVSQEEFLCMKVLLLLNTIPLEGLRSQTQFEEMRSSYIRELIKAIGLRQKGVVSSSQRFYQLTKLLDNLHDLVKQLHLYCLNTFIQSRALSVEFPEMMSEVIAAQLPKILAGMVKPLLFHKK
As to the kind of experiment: Relative binding affinity for human progesterone receptor in MCF-7 cell cytosols compared to Org 2058. It is filed as cell-based.

Test [2] is described as follows: Ratio of compound to that of glucocorticoid receptor binding and progesterone receptor binding was determined.

With `C[C@]12C[C@H](c3ccc4c(c3)OCCO4)C3=C4CCC(=O)C=C4CCC3C1CC[C@@]2(O)C#Cc1ccc(N2CCCC2=O)cc1` (some centres undefined), in test [1], the Affinity stood at 0.2%. Moreover, in test [2], the Ratio came to 490.
Molecule `CN(C)c1ccc([C@H]2C[C@@]3(C)C(CC[C@@]3(O)C#Cc3ccc(S(C)(=O)=O)cc3)C3CCC4=CC(=O)CCC4=C32)cc1` (some centres undefined) returned an Affinity in test [1] of 2%. For the same molecule, the Ratio in test [2] came out at 44.
In the same order, the values of `C[C@]12C[C@H](c3ccc4c(c3)OCO4)C3=C4CCC(=O)C=C4CCC3C1CC[C@@]2(O)C#Cc1ccc(S(C)(=O)=O)cc1` (some centres undefined) are 0.4% and 488.
In the same order, the values of `CN(C)c1ccc(/C=C/[C@]2(O)CCC3C4CCC5=CC(=O)CCC5=C4[C@@H](c4ccc(N(C)C)cc4)C[C@@]32C)cc1` (some centres undefined) are 6.1% and 1.
In the same order, the values of `CC#C[C@]1(O)CC[C@H]2[C@@H]3CCC4=CC(=O)CCC4=C3[C@@H](c3ccc(N(C)C)cc3)C[C@@]21C` are 36% and 5.4.
On to `CN(C)c1ccc(C#C[C@]2(O)CCC3C4CCC5=CC(=O)CCC5=C4[C@@H](c4ccc(N(C)C)cc4)C[C@@]32C)cc1` (some centres undefined), for which the Affinity in test [1] is 1.7%. For the same molecule, in test [2], the Ratio is 49.
In the same order, the values of `CN(C)c1ccc([C@H]2C[C@@]3(C)C(CC[C@@]3(O)C#Cc3ccccc3)C3CCC4=CC(=O)CCC4=C32)cc1` (some centres undefined) are 16% and 6.
